{
  "source": "patent US12174172B2",
  "about": "“Method for evaluating the efficacy of a composition in reducing the effects of cancer therapeutics on skin” (Johnson & Johnson Consumer Inc., priority 2019, dated 2024)",
  "key": {"[1]": {"details": "cited from earlier work"}, "filaggrin (FLG)": {"tested_on": "filaggrin (FLG)", "assay": "3D micro-epidermis model (EpiScreen): filaggrin immunostaining;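 also: human primary epidermal keratinocytes differentiated in high calcium into 3D micro-epidermises, compound-treated for three days, imaged by confocal high-content microscopy, filaggrin staining intensity quantified within actin-segmented structures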", "type": "cell-based, human"}, "desmoglein-1 (DSG1)": {"tested_on": "desmoglein-1 (DSG1)", "assay": "3D micro-epidermis model (EpiScreen): desmoglein-1 immunostaining", "type": "cell-based, human", "procedure": "To assess the effects of such therapy molecules on the epidermis, keratinocytes were grown in the presence of kinase inhibitors during 3 days with high calcium concentration to induce keratinocyte differentiation and generate a 3D-stratified differentiated epidermis. Drug impact on the epidermis development was assessed via different keratinocyte markers including: • Ki-67, an universally expressed protein among proliferating cells and absent in the quiescent cells; • Filaggrin, a filament-associated protein that binds to keratin fibers and is a marker of terminal differentiation; • Desmoglein-1, a component of desmosomes and differentiation marker expressed in all epidermal layer above the basal layer; and • Involucrin, an early differentiation marker expressed in the spinous and granular layers and a protein precursor of the epidermal cornified envelope.\nHuman epidermal keratinocytes cells (HPEKs) from a juvenile donor (CellnTec, Switzerland) are cultured in flasks in proliferation medium. Keratinocytes are seeded at passage 6 into EpiScreen™ (Abzena, Cambridge, UK) plates containing collagen 1 coated disc micropatterns (CYTOO, Grenoble, France). Four hours later, unattached cells are washed off and a high calcium medium is added to induce keratinocytes differentiation. The day after, keratinocytes are treated with screening compounds, and Trichostatin A is added at 0.3 μM as an internal positive control. After three days of treatment, micro-epidermises are fixed with a formalin solution 10% for 30 minutes, then permeabilized with 0.1% Triton. Several immunostainings are performed: actin (Acti-Stain 555, PHDH1, Cytoskeleton), nuclei (Hoechst, H3570, Invitrogen), and one biomarker of interest per well either anti-involucrin (HPA055211, Sigma), anti-filaggrin (HPA030189, Sigma) or anti-desmoglein-1 (HPA022128, Sigma). Antibodies are added overnight at 4° C. before staining with secondary antibody, anti-rabbit 488 (711-545-152, Jackson) for 2 hours at room temperature.\nImages of each well are acquired with the Operetta HCS platform (Perkin Elmer, Waltham, MA, USA) using a ×10 objective in confocal mode in eight z-planes from 2 μm to 44 μm in steps of 6 μm in each of the 3 channels: actin, nuclei, and one biomarker of interest. The first step of the image analysis consists in detecting micro-epidermis structures on the first z-plane by segmenting the actin staining. Micro-epidermis structures are validated based on several area and roundness min and max criteria. Then, the area of each biomarker staining is measured inside the valid micro-epidermis masks through each z-plane. For all homogeneous biomarker staining, their intensity through the different planes is measured.\nThe actin network of each micro-epidermis is analyzed in each z-plane in order to determine the average 3D structure edges. The biomarker intensity is measured in each z-plane for each structure, and then averaged with the other results generated in the same well. Based on the data generated in the two previous steps, an average 3D reconstruction image is generated. It consists of a meshwork that delimits the structure edges, and a color scaled volume that corresponds to the biomarkers distribution and expression.\nThe effect of 8 oncology molecules, selected from first generation EGFRi and pan-kinase inhibitors which mostly target VEGFR and second and third generation therapies targeting main mutations relating to first generation treatment resistance, were assessed in vitro using a 3D micro-epidermis model. The drug incubation concentrations (3, 10, 30, 100 nM) were selected to reflect the clinically relevant (unbound) drug exposures (Table 2). The drug impact was assessed by analysis of tissue size and keratinocyte proliferation using Ki-67 staining and keratinocyte differentiation using filaggrin, desmoglein-1 and involucrin staining. […]"}, "Keratinocytes": {"tested_on": "Keratinocytes", "assay": "WST-8 viability and proliferation assay", "type": "cell-based, human", "details": "keratinocytes exposed for 24 h, relative to vehicle (FIG. 5a)", "source_text": "The Water-Soluble Tetrazolium Salts (WST-8) Colorimetric Cell Proliferation Kit (Promokine, Heidelberg, Germany) provides a rapid and sensitive way to quantify proliferation and cell viability. Cell proliferation causes an increase in the amount of formazan dye formed that can be quantified by measuring the absorbance of the dye solution at […] using a microtiter plate reader (Perkin Elmer EnVision 2103 Multilabel Reader, Waltham, MA, USA). Cellular proliferation induces an increase in the activity of mitochondrial dehydrogenases, which cleaves the tetrazolium salt […] into formazan. 15,000 Keratinocytes per well were seeded on 96-well plate, once confluence reach, drug concentration used were +/−½ log of the plasmatic concentration. 10 μl of Colorimetric Cell Viability Kit is added and completed with 360 μl of culture media, results were read after 4 h at 450 nm to determine cell viability. Results were obtained with 6 donors of keratinocytes in 2 experiments"}, "[2]": {"tested_on": "Human epidermal keratinocytes cells (HPEKs), 3D micro-epidermis", "assay": "3D micro-epidermis model (EpiScreen): epidermis size, toxicity, dose response, classification;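 also: keratinocytes on micropatterned discs in high-calcium medium, drug exposure for three days, then fixation and confocal high-content imaging of actin, nuclei and a marker, vehicle DMSO-matched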", "type": "cell-based"}, "[3]": {"tested_on": "caspase-3 activity in keratinocytes", "assay": "Caspase-3 fluorometric assay (cell apoptosis)", "type": "cell-based, human", "details": "2.59 nM and 25.89 nM, 24 h (FIG. 5b)", "source_text": "The kit (biotium, Fremont, CA, USA) provides a homogenous assay system for fast and highly sensitive detection of caspase-3 activity by fluorescence in enzymatic reaction or mammalian cells. The fluorogenic substrate (Ac-DEVD) 2-R110 contains two DEVD (Asp-Glu-Val-Asp) tetrapeptides and is completely hydrolyzed by the enzyme in two successive steps. Cleavage of the first DEVD peptide results in the monopeptide Ac-DEVD-R110 intermediate, which has absorption and emission wavelengths similar to those of R110 (Ex/Em=496/520 nm) but has only about 10% of the fluorescence of the latter. Hydrolysis of the second DEVD peptide releases the dye R110, leading to a substantial fluorescence increase. Keratinocytes were plated at 15,000 cells per well in 100 μl of medium in a 96-well black microplate. They were allowed to attach and grow overnight in a 37° C., 5% CO2 incubator. They were then treated for 20 h with a 1:2 dilution series of staurosporine, a caspase 3 inducer. Imaging was performed on Perkin Elmer EnVision 2103 Multilabel Reader using an excitation wavelength of 490 nm and emission wavelength of 535 nm. Cells were incubated at room temperature for 15 min, protected from light. Results were obtained with 6 donors of keratinocytes in 2 experiments"}},
  "note": "“Also recorded” adds a separate entry of the source. Marks after values point to notes of the source that are not given here.",
  "data": [
    {"smiles": "CN(C)C/C=C/C(=O)Nc1cc2c(Nc3ccc(F)c(Cl)c3)ncnc2cc1O[C@H]1CCOC1", "note": "[Afatinib]", "values": [
      {"measurement": "Cmax", "setting": "[1]; maximal plasma concentration after a single daily-recommended dose, human", "result": 32, "unit": "nM"},
      {"measurement": "Unbound concentration", "setting": "[1]; unbound plasma concentration, identified or calculated from Cmax and unbound fraction", "result": 1.6, "unit": "nM"},
      {"measurement": "Unbound fraction", "setting": "[1]; unbound to plasma protein", "result": 5, "unit": "%*"},
      {"measurement": "FLG 3 nM", "setting": "filaggrin (FLG); 3 nM, supplementary data", "result": 4, "unit": "%"},
      {"measurement": "FLG 30 nM", "setting": "filaggrin (FLG); 30 nM, supplementary data", "result": 19, "unit": "%"},
      {"measurement": "activation at 0.01 µM", "setting": "filaggrin (FLG); Homo sapiens, 72 h, 10 nM, supplementary data, two runs, read-out: FLG 10 nM", "result": 12, "unit": "%"},
      {"measurement": "FLG expression", "setting": "filaggrin (FLG); Table 1 summary", "result": "Increased"},
      {"measurement": "filaggrin expression", "setting": "filaggrin (FLG); concentration (afatinib 10 and 30 nM; pan-kinase inhibitors 100 nM)", "result": "significantly increased; also recorded: increased in a dose-dependent manner"},
      {"measurement": "DSG 3 nM", "setting": "desmoglein-1 (DSG1); 3 nM, supplementary data", "result": 38, "unit": "%"},
      {"measurement": "DSG 30 nM", "setting": "desmoglein-1 (DSG1); 30 nM, supplementary data", "result": 87, "unit": "%"},
      {"measurement": "activation at 0.01 µM", "setting": "desmoglein-1 (DSG1); Homo sapiens, 72 h, 10 nM, supplementary data, read-out: DSG 10 nM", "result": 67, "unit": "%"},
      {"measurement": "DSG-1 expression", "setting": "desmoglein-1 (DSG1); Table 1 summary", "result": "Increased"},
      {"measurement": "desmoglein-1 expression", "setting": "desmoglein-1 (DSG1); concentration (afatinib 3, 10, 30 nM; pan-kinase inhibitors 100 nM)", "result": "significantly increased; also recorded: increased in a dose-dependent manner"},
      {"measurement": "cell viability", "setting": "Keratinocytes", "result": "decreases; also recorded: significant effect"},
      {"measurement": "Toxicity at 1 μM", "setting": "[2]; 1 μM, micro-epidermis", "result": "Yes"},
      {"measurement": "effect on desmoglein-1, involucrin and filaggrin expression (dose dependence)", "setting": "[2]; 3, 10, 30 nM", "result": "increases; also recorded: dose-dependent manner"},
      {"measurement": "Epidermis size", "setting": "[2]; Table 1 summary of drug effect on epidermis", "result": "Decreased"},
      {"measurement": "Classification", "setting": "[2]; Table 1 summary, pro-differentiation / pro-proliferation", "result": "Pro-differentiation"},
      {"measurement": "Epidermis size", "setting": "[2]; Table 3, 30 nM (EGFRi) or 100 nM (VEGFRi), 3 days, vs untreated control, superscript = significance footnote", "result": "Decreased^2"},
      {"measurement": "Classification", "setting": "[2]; Table 3, pro-proliferation or pro-differentiation", "result": "Pro-"},
      {"measurement": "Dose in response", "setting": "[2]; Table 3, variation of protein expression at 3, 10, 30 nM (EGFRi) or 3, 10, 30, 100 nM (VEGFRi), markers in brackets", "result": "Yes"},
      {"measurement": "toxicity at higher drug concentration", "setting": "[2]; above 1 μM, micro-epidermis", "result": "toxic leading to epidermal necrosis"},
      {"measurement": "micro-epidermis size / epidermal volume", "setting": "[2]; concentration (afatinib 3-30 nM; pan-kinase inhibitors up to 100 nM)", "result": "significantly decreased; also recorded: significantly reduced"},
      {"measurement": "Dose/response", "setting": "[2]; supplementary table, per run (1st or 2nd Run), markers in brackets", "result": "Yes (DSG, IVL,"},
      {"measurement": "cell apoptosis", "setting": "[3]", "result": "does not induce apoptosis; also recorded: did not show any effect; also recorded: not affected"}
    ]}
  ]
}
